This is an account of results in patent publication US10550105B2 (Ribon Therapeutics Inc., priority 2018, dated 2020).

The test system of assay [1] is NCI-H1373 lung cancer cells. The assay is described as follows: Inhibition of cancer cell growth in NCI-H1373 lung cancer cells (FIG. 2). The class given is cell-based, human.
The subject of assay [2] is interferon-beta (IFN-β). Kind of assay: Induction of interferon-beta levels in CT26 cells in the presence of STING agonist DMXAA (FIG. 3). It counts as cell-based. The conditions noted are these: CT26 mouse colon cancer cells.
Assay [3] addresses T1, PARP7 (Homo sapiens (Human), UniProt Q7Z3E1). Kind of assay: Inhibition of PARP7 (Table A-1). The class given is biochemical. The conditions noted are these: comparison of separated isomers, see Table A-1.
The target in assay [4] is T1, PARP7. The assay is described as follows: Enzymatic assay for inhibition of PARP7: TR-FRET displacement of biotinylated Probe A from the TIPARP active site. The class given is binding. The conditions noted are these: Table A-1. The procedure, abridged:
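Compounds were tested as dose-response series, and reactions were incubated a further 30 min at 25° C. TR-FRET was read at 320 nm excitation with 615 and 665 nm emission after a 90 μs delay. The 665/615 ratio gave the TIPARP–Probe A complex, and % inhibition was fitted against concentration.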
(In general: In TR-FRET formats the signal depends on donor and acceptor labels being close together.)

Assay [5] has as its system GSS. Kind of assay: Growth inhibition of cancer cell lines, 72 hrs (CellTiter-Glo). The conditions noted are these: stomach, adenocarcinoma. It counts as cell-based. Here is the method: (§1) Example C: Inhibition of Cancer Cell Growth by Treatment with PARP7 Inhibitors
(§2) Table A-2 and Table A-3 (below) represents the concentration that causes 50% growth inhibition (GI50) in a panel of cancer cell lines with Compound 18B and Compound 561. Cells were plated into 384-well plates at a pre-specified density in fetal bovine serum-containing media. Cells were treated with compound or vehicle (DMSO) 24 hrs later, and a day zero plate was collected for analysis. Test compound plates were incubated continuously for 72 hrs (Table A-2) or 144 hours (Table A-3) cell growth was assessed using a luminescent cell viability assay (CellTiter-Glo, Promega). The GI50was determined by correcting for the cell count at time zero (time of treatment) and plotting data as percent growth relative to vehicle-treated cells.
For orientation: In ATP-based viability assays light output follows the ATP content of the culture.

For assay [6], the system named is CT26 colon cancer syngeneic model. Kind of assay: Tumor growth in the murine syngeneic model CT26 (FIG. 6A-C, 7B). It counts as in vivo, mouse. The conditions noted are these: once or twice daily administration, FIG. 7B.
For assay [7], the system named is human NCI-H1373 lung cancer xenograft. Kind of assay: Tumor growth in human NCI-H1373 lung cancer xenograft (FIG. 7A). It counts as in vivo. The conditions noted are these: once daily administration.
Assay [8] has as its system AGS. Kind of assay: Growth inhibition of cancer cell lines, 144 hours (CellTiter-Glo). The class given is cell-based. The following applies: Homo sapiens, gastric adenocarcinoma. Here is the method:
as §1, §2

Assay [9] deals with CAL-27. Described as above. The conditions noted are these: Homo sapiens, tongue squamous cell carcinoma. It counts as cell-based. Here is the method: as §1, §2
The subject of assay [10] is CFPAC-1. The description is as above. It counts as cell-based. The following applies: Homo sapiens, pancreatic ductal adenocarcinoma. Here is the method:
as §1, §2

Assay [11] relates to COLO 680N. Described as above. The conditions noted are these: Homo sapiens, esophageal squamous cell carcinoma. The class given is cell-based. As to the method:
as §1, §2

For assay [12], the system named is COR-L105. Described as above. The class given is cell-based. The following applies: Homo sapiens, lung adenocarcinoma. As to the method:
as §1, §2

Assay [13] relates to Caki-1. The description is as above. It counts as cell-based. The following applies: Homo sapiens, clear cell renal cell carcinoma. Here is the method:
as §1, §2

The subject of assay [14] is HCC827. The assay is described as above. The class given is cell-based. The conditions noted are these: Homo sapiens, lung adenocarcinoma. As to the method:
as §1, §2

The test system of assay [15] is HPAF-II. The description is as above. It counts as cell-based. The following applies: Homo sapiens, pancreatic adenocarcinoma. As to the method:
as §1, §2

The test system of assay [16] is HT-1080. The assay is described as above. It counts as cell-based. The conditions noted are these: Homo sapiens, fibrosarcoma. Here is the method: as §1, §2
The test system of assay [17] is IA-LM. The description is as above. The class given is cell-based. The following applies: large cell lung carcinoma. As to the method: as §1, §2
For assay [18], the system named is KALS-1. The assay is described as above. It counts as cell-based. The conditions noted are these: Homo sapiens, glioblastoma. Here is the method:
as §1, §2

Assay [19] concerns KMBC-2. Described as above. It counts as cell-based. The following applies: bladder carcinoma. Here is the method: as §1, §2
For assay [20], the system named is LN-18. The assay is described as above. It counts as cell-based. The conditions noted are these: Homo sapiens, glioblastoma. As to the method: as §1, §2
Assay [21] relates to MSTO-211H. The assay is described as above. The conditions noted are these: Homo sapiens, biphasic mesothelioma. The class given is cell-based. As to the method:
as §1, §2

In assay [22] the test system is NCI-H1373. Described as above. It counts as cell-based. The following applies: Homo sapiens, lung adenocarcinoma. Here is the method: as §1, §2
Assay [23] deals with NCI-H1437. The description is as above. The class given is cell-based. The conditions noted are these: Homo sapiens, lung adenocarcinoma. Here is the method:
as §1, §2

In assay [24] the test system is NCI-H1648. The description is as above. It counts as cell-based. The conditions noted are these: Homo sapiens, lung adenocarcinoma. Here is the method: as §1, §2
The test system of assay [25] is NCI-H2009. The assay is described as above. It counts as cell-based. The following applies: Homo sapiens, lung adenocarcinoma. Here is the method:
as §1, §2

The test system of assay [26] is NCI-H2087. Described as above. It counts as cell-based. The conditions noted are these: Homo sapiens, lung adenocarcinoma. Here is the method:
as §1, §2

Assay [27] relates to NCI-H2291. The description is as above. The conditions noted are these: Homo sapiens, lung adenocarcinoma. It counts as cell-based. As to the method:
as §1, §2

The subject of assay [28] is NCI-H2347. Described as above. It counts as cell-based. The conditions noted are these: Homo sapiens, lung adenocarcinoma. Here is the method: as §1, §2
Assay [29] relates to NCI-H2444. The assay is described as above. The class given is cell-based. The conditions noted are these: Homo sapiens, non-small cell lung carcinoma. As to the method:
as §1, §2

For assay [30], the system named is NCI-H441. Described as above. It counts as cell-based. The following applies: Homo sapiens, papillary adenocarcinoma of the lung. As to the method:
as §1, §2

Assay [31] has as its system NUGC-3. The assay is described as above. The class given is cell-based. The following applies: Homo sapiens, gastric adenocarcinoma. As to the method:
as §1, §2

The subject of assay [32] is Panc 03.27. The assay is described as above. The conditions noted are these: Homo sapiens, PANC-03-27, pancreatic adenocarcinoma. The class given is cell-based. As to the method: as §1, §2
For assay [33], the system named is SCaBER. The description is as above. The following applies: Homo sapiens, bladder squamous cell carcinoma. It counts as cell-based. As to the method:
as §1, §2

In assay [34] the test system is SK-LU-1. The assay is described as above. It counts as cell-based. The following applies: Homo sapiens, lung adenocarcinoma. Here is the method: as §1, §2
For assay [35], the system named is SK-MEL-2. The description is as above. The class given is cell-based. The conditions noted are these: Homo sapiens, malignant melanoma. As to the method: as §1, §2
For assay [36], the system named is T84. Described as above. It counts as cell-based. The conditions noted are these: Homo sapiens, colon adenocarcinoma. Here is the method:
as §1, §2

Assay [37] has as its system TUHR10TKB. The description is as above. It counts as cell-based. The following applies: renal cell carcinoma. As to the method:
as §1, §2

In assay [38] the test system is TYK-nu. The description is as above. It counts as cell-based. The conditions noted are these: high grade ovarian serious adenocarcinoma. As to the method: as §1, §2
Assay [39] has as its system YD-10B. The assay is described as above. The class given is cell-based. The following applies: tongue squamous cell carcinoma. Here is the method:
as §1, §2

T1 sequence (Q7Z3E1 whole entry): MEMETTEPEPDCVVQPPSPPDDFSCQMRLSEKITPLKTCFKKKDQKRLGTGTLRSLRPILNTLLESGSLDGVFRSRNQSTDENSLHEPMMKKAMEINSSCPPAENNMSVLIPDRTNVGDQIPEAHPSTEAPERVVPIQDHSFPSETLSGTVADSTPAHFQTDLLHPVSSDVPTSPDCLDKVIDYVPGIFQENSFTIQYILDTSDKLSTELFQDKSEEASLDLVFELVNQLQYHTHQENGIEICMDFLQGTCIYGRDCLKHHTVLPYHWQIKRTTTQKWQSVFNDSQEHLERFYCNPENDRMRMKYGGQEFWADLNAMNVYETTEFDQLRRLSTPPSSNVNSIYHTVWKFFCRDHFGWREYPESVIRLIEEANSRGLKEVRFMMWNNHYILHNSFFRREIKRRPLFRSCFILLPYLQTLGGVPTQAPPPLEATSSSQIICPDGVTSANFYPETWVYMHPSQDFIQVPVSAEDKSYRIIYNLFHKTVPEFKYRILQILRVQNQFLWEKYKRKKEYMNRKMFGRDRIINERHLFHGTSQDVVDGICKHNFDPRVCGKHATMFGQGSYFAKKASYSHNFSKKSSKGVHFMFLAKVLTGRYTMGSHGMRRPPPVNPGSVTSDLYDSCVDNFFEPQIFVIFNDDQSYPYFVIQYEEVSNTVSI

What is called IC50 is the concentration at which inhibition is half-maximal. Low values mean higher potency, high ones lower potency. By GI50 is commonly meant the concentration giving 50% growth inhibition. Low values mean greater sensitivity of the cells, high ones lower sensitivity of the cells. Consider `N#Cc1ccc(N2CCN(C(=O)c3cccc(OC[C@@H]4c5ccccc5CN4c4cn[nH]c(=O)c4C(F)(F)F)c3)CC2)nc1` (single isomer, unassigned) [Example 18 Isomer B], for which, in assay [1], the “growth of NCI-H1373 lung cancer cells” value is “dose-dependent decrease in growth”. For the same molecule, in assay [2], the “interferon-beta (IFN-β) levels” value is given as “induction”. Besides, the “relative potency of the enantiomers / diastereomers” value in assay [3] is on record as “more potent enantiomer”. Besides, the IC50 in assay [4] is < 100 nM. Besides, in assay [5], the GI50 was 100 to 1000 nM.
As to `C[C@@H](COCCC(=O)N1CCN(c2ncc(C(F)(F)F)cn2)CC1)Nc1cn[nH]c(=O)c1C(F)(F)F` [Example 561, 5-[[(2S)-1-(3-oxo-3-[4-[5-(trifluoromethyl)pyrimidin-2-yl]piperazin-1-yl]propoxy)propan-2-yl]amino]-4-(trifluoromethyl)-2,3-dihydropyridazin-3-one], the tumor growth result in assay [6] and in assay [7] was “significantly reduces tumor growth” each time. The GI50 in [8] was ≥ 1000 nM; in [9], ≥ 1000 nM; in assay [10], 100 to 1000 nM; in assay [11], ≥ 1000 nM; in assay [12], 100 to 1000 nM; in [13] it was < 100 nM. The concentration for 50% growth inhibition (GI50) was < 100 nM in [14]; ≥ 1000 nM in [15]; ≥ 1000 nM in [16]; < 100 nM in [17]; ≥ 1000 nM in assay [18]; ≥ 1000 nM in [19]. For the same molecule, the GI50 was ≥ 1000 nM in assay [20]; ≥ 1000 nM in assay [21]; < 100 nM in assay [22]; ≥ 1000 nM in assay [23]; ≥ 1000 nM in assay [24]; ≥ 1000 nM in assay [25]. The GI50 is ≥ 1000 nM in [26]; ≥ 1000 nM in assay [27]; < 100 nM in [28]; ≥ 1000 nM in assay [29]; ≥ 1000 nM in assay [30]; ≥ 1000 nM in assay [31]. Also, the GI50 in assay [32] is < 100 nM; in assay [33] it was ≥ 1000 nM; in assay [34], ≥ 1000 nM; in [35], ≥ 1000 nM; in [36] it was ≥ 1000 nM; in assay [37] it was < 100 nM. In addition, the GI50 in [38] was < 100 nM; in [39], ≥ 1000 nM.
